Data as given in patent US7223365B2, “Device and method for detecting the coagulation functions of global, especially primary hemostasis” (priority 2000, dated 2007).

Tested on: platelet function
Test: examination of the coagulation function of the global, in particular the primary, hemostasis; volumetric flow regulated by pressure change in the reaction opening at constant shear rate
Format: cell-based
Conditions: FIG. 29; volumetric flow regulated at specified constant shear rate
Text: The sealing time and the sealing volume are measurement values for clinical analysis.

CC(=O)Oc1ccccc1C(=O)O [ASA, acetylsalicylic acid]
deposition of platelets in the reaction opening: hardly any deposition of platelets | measurement limits (sealing time / sealing volume): not reached
